# Publication PMC11891579, “Fluorescent PyrAte-(S)-citalopram conjugates enable imaging of the serotonin transporter in living tissue” (Chemical Science, 2025)
# Entries after “also recorded” stand apart in the source; their conditions may differ.
# Columns and labels:
# [1] = target: T1, endogenously expressed SERT (Mus musculus, UniProt Q60857); assay: two-photon microscopy of acute mouse brain slices; conditions: for staining of acute mouse brain slices (DS, SNr, DR): 500 nM, 30 min, reduced by escitalopram or paroxetine
# T1 construct: label endogenously expressed SERT; from tissue; host or cells: acute coronal brain slices of C57/BL-6 and Pet1-eYFP mice (dorsal striatum, substantia nigra reticulata, dorsal raphe)
# T1 sequence (Q60857 whole entry): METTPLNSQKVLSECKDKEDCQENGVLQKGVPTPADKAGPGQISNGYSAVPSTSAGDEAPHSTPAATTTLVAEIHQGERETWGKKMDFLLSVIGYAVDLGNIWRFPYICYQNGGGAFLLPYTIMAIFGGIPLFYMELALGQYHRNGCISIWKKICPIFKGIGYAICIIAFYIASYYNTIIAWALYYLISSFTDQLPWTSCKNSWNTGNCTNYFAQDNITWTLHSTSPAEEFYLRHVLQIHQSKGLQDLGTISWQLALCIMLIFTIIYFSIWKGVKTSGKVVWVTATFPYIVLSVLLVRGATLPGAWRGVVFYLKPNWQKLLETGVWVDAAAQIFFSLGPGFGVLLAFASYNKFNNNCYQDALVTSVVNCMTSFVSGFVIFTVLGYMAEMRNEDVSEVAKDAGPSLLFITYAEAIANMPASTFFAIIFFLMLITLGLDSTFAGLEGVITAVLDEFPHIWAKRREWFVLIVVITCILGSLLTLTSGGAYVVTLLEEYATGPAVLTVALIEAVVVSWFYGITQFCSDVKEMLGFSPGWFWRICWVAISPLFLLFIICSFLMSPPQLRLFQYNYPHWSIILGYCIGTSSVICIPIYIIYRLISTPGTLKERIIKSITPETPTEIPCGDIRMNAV
# Text: All animal protocols were approved by the Institutional Animal Care and Use Committee (IACUC) of Columbia University, following guidelines established in the NIH Guide for the Care and Use of Laboratory Animals. All animals were caged in groups of 5 or less in a 12-hr light/dark cycle with access to food and water ad libitum.
# Acute mouse brain slices preparation
# Wild-type C57/BL-6 (The Jackson Laboratory, Bar Harbor, ME) and Pet1-eYFP mice were sacrificed by cervical dislocation at ages > 12 weeks. Pet1-eYFP mice (Cg-Tg(Fev-cre)1Esd/J (ePet-cre; The Jackson Laboratory) crossed with Ai32(RCLChR2(H134R)/EYFP (Ai32; The Jackson Laboratory) maintained on a 129SvEv/Tac background) were kindly provided by Dr. Mark S. Ansorge (Columbia University Irving Medical Center; Department of Psychiatry, New York, NY 10032). Mice were decapitated, and the brain was removed and placed in an ice-cold sucrose cutting solution. Coronal brain slices with 300 µm thickness were prepared using a Leica VT1200 vibratome at 0 – 4 °C. Slices containing the striatum, substantia nigra, and the raphe were transferred to oxygenated ACSF solution and allowed to equilibrate at room temperature.
# Slices were incubated with PyrAte-(S)-citalopram conjugates (500 nM in ACSF) for 30 minutes at room temperature. For inhibition experiments, escitalopram (2 µM) and paroxetine (30 µM) were incubated for 15 minutes prior to addition of the test compound. Each slice was then transferred to an imaging chamber and held in place by a stainless-steel slice anchor (Warner Instruments). ACSF solutions containing the test compounds were continuously perfused throughout the imaging experiments. Structures at depths between 20 to 30 µm from the top of the slice were visualized with fluorescent signals using a Prairie Ultima multi-photon microscopy sytem: PyrAte was imaged using 810 nm excitation wavelength and 525/50 nm emission filter, eYFP was imaged using 965 nm excitation wavelength and 525/50 nm emission filter. Images were captured using Prairie View software and processed with ImageJ. Further co-localization analysis was performed using the JACoP plug-in.1 Statistical and data analysis
# Data treatment and statistical analysis were performed using Microsoft Excel 2016 and GraphPad Prism v10.0. Data and statistical tests as shown in Figure 2 include individual points, mean, SEM, and P = 0.0023 as determined using two-tailed, paired t-test (t = 5.690, df = 5). Data and statistical tests as shown in Figure 5 include individual values, mean, SEM, and P values as determined using two-tailed unpaired t-test with Welch’s corrections (Fig. 5A: P = 0.0166, t = 4.665, df = 3.157; Fig. 5B: P =
# [2] = target: T2, mCherry-SERT-expressing HEK293 cells (Homo sapiens, UniProt P31645); assay: confocal microscopy of membrane staining; type: cell-based; conditions: for membrane staining of mCherry-SERT HEK293 cells: 20 nM
# T2 construct: expressed in transfected cells
# T2 sequence (P31645 whole entry): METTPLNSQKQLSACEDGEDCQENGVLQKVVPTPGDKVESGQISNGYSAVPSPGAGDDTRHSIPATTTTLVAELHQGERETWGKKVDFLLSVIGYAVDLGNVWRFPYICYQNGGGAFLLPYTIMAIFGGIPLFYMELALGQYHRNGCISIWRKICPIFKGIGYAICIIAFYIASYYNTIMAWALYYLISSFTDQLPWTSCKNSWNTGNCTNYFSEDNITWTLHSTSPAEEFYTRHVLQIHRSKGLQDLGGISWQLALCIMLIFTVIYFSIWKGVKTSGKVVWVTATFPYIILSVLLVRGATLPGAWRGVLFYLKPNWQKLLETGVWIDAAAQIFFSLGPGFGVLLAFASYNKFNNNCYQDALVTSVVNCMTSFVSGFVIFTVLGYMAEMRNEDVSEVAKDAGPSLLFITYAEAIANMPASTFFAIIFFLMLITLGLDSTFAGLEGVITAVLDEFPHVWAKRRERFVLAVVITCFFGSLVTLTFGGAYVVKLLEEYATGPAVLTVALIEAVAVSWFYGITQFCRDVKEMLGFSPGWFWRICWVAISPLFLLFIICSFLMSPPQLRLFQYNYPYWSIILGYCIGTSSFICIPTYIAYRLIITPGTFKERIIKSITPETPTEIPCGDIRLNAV
# Procedure: Prior to imaging, cell culture medium was replaced with pre-warmed KHB. HEK293 cells expressing mCherry-SERT were imaged using a Nikon A1R laser scanning confocal microscope equipped with a GaAsP detector, using a 60× oil-immersion objective. PyrAtes dissolved in DMSO were diluted in KHB (0.1% v/v) to make solutions with the desired final concentration (20 nM, 100 nM), which were added to each well containing the cells. To test specific binding, cells were pre-incubated with 10 – 30 µM paroxetine for 10 minutes. PyrAtes were excited using a 405 nm laser, and its fluorescent signals collected using 525/50 nm emission filters; mCherry was excited using a 561 nm laser, and fluorescence was collected using 595/50 nm emission filters. Images were captured prior to and at specific time points after addition of the PyrAte compounds using NIS-Elements software. […]
# Cells were voltage-clamped (−60 mV) and continuously superfused with a physiological external solution containing 140mM NaCl, 2.5 mM CaCl2,2mM MgCl2, 20mM glucose and 10mM HEPES, pH= 7.4. Micropipettes were made from borosilicate glass capillaries with a resistance ranging from 2.5 – 6 MΩ using a P-97 micropipette puller (Sutter Instrument), which were then filled with an internal solution containing 133mM K-gluconate, 6mM NaCl, 1mM CaCl2, 0.7 mM MgCl2, 10mM HEPES, 10mM EGTA, pH= 7.2. For the measurements we used an amplifier […] and pClamp 11.2 software (MDS Analytical Technologies, Sunnyvale, CA, USA). The compounds were diluted the day of the experiments in external solutions and applied using a DAD-12 superfusion system with a 8-tube perfusion manifold (ALA Scientific Instruments, Farmingdale, NY, USA), guaranteeing rapid solution exchange. Current traces were filtered at 1 kHz and digitized at 10 kHz using a Digidata 1550 (MDS Analytical Technologies). […]
# [3] = photophysical properties in aqueous media; type: physicochemical; conditions: PBS:DMSO 99:1 v/v; for Quantum yield: C153 as internal standard
# Text: Table S5. Photophysical properties of PyrAte-(S)-citalopram conjugates in aqueous media (PBS:DMSO
# 99:1 v/v). C153 (coumarin 153) was used as internal standard for the measurement of quantum yield.
# Compound λmax (nm) λEm (nm) Stokes shift ε at λmax Quantum Brightness (at λmax,
# (nm) (M-1 cm-1) yield 103 M-1 cm-1)
"Pearson's correlation coefficient r, co-localization with eYFP-expressing serotonergic projections ([1]; DS, Pet1-eYFP mice)","Pearson's correlation coefficient r, co-localization with eYFP-expressing serotonergic projections ([1]; DS, in the presence of paroxetine)","Pearson's correlation coefficient r, co-localization with eYFP-expressing serotonergic projections ([1]; SNr, Pet1-eYFP mice)","Pearson's correlation coefficient r, co-localization with eYFP-expressing serotonergic projections ([1]; SNr, in the presence of paroxetine)",Brightness (at λmax) [3],Stokes shift [3],ε at λmax [3],λEm [3],λmax [3],Quantum yield [3],staining of mCherry-SERT HEK293 cells ([2]; 100 nM),SMILES,"staining of acute mouse brain slices (DS, SNr, DR) [1]","membrane staining of mCherry-SERT HEK293 cells ([2]; 60 min incubation, absent with paroxetine)","membrane staining of mCherry-SERT HEK293 cells ([2]; 30 min incubation, blocked by 30 μM paroxetine)"
0.70,0.43,0.72,0.58,24.0 103 M-1 cm-1,88 nm,30000 M⁻¹ cm⁻¹,493 nm,405 nm,0.82,–,"CCN(CC)c1ccc(-c2cc[n+]3c(-c4ccccc4)c(N4CCCC4)n(CCCC(=O)NCc4ccc5c(c4)CO[C@@]5(CCCN(C)C)c4ccc(F)cc4)c3c2)cc1 [PYR-C3-CIT, PyrAte-C3-(S)-citalopram]",localization of the compound in serotonergic regions in the DS and SNr,enhanced co-localization of PyrAte and mCherrySERT signals and no internalization; also recorded: SERT-specific membrane staining,–
–,–,–,–,27.0 103 M-1 cm-1,87 nm,39600 M⁻¹ cm⁻¹,493 nm,406 nm,0.69,mitochondrial staining,"CCN(CC)c1ccc(-c2cc[n+]3c(-c4ccccc4)c(N4CCCC4)n(CCCCCCC(=O)NCc4ccc5c(c4)CO[C@@]5(CCCN(C)C)c4ccc(F)cc4)c3c2)cc1 [PYR-C6-CIT, PyrAte-C6-(S)-citalopram]",effectively stains all three areas examined; also recorded: SERT-specific staining in acute mouse brain slices,–,binds specifically to membrane-expressed SERT; also recorded: SERT-specific membrane staining
